In patent EP0719267B1, “SECOND MESSENGER CELL SIGNALING INHIBITORS” (CELL THERAPEUTICS, INC., priority 1993, dated 1994):
Entries after “also recorded” stand apart in the source; their conditions may differ. Where two headings read alike, the source gives them in different places.

How the values were obtained:
[1] = tested on: C57BL/6 splenocytes; experiment: Antigen specific anergy induction (splenocytes with 2PK3 B cell tumor, restimulation); type: cell-based, murine
Protocol: A B cell tumor, 2PK3 (H-2d) was used as a stimulating cell for C57BL/6 splenocytes (H-2b), a responding cell. Mixed cultures of B-cell tumor and splenocytes were incubated for 5 days with and without 1 µM of compound no. 45. After 5 days, the cells were washed and resuspended with either media, the original antigen (2PK3) or anti-CD3. Tritiated thymidine was added to the resulting suspensions and thymidine incorporation measured 24 hours later. As illustrated, culture treated with inventive compound no. […] However, cultures incubated with inventive compound no. […] Thus, C57BL/6 splenocytes were inhibited from responding to an original antigen by the inventive compound used in the pre-incubation step.
As shown in figures 56A and 56B, inventive compound no. 45 also induces antigen specific T-cell anergy. Procedurally, murine splenocytes were stimulated with an alloantigen target cell line 2PK3 in the presence or absence of compound no. 45 (1 µM; approximate IC50). Following 5 days in culture, the cells were washed, re-cultured and restimulated with the original priming antigen and anti-CD3 monoclonal antibody. […] 45 during the five day primary culture. […] Although cells pretreated with inventive compound no. 45 could respond normally to polyclonal stimulation, those that were challenged with the alloantigen could not. Therefore, compound no. 45 induced a specific state of unresponsiveness or anergy to the alloantigen.

[2] = tested on: anti-CD3-stimulated mouse splenocytes; experiment: Cytokine release from anti-CD3-stimulated splenocytes (ELISA); type: cell-based; settings: 1 µM, overnight
Protocol: Figures 59A, 59B and 59C report assay results investigating the effect of inventive compound no. 45 on cytokine release from anti-CD3-stimulated mouse splenocytes. […] 45 (1 µM). Concentrations chosen were approximately equal to IC50 values. The supernatants were harvested and assayed for cytokine levels using commercial ELISAs for proliferation. Anti-CD3 stimulated release of IL-2, IFN-γ and IL-4 (background levels for media control were negligible). […] However, compound no. […] Compound no.

[3] = tested on: murine splenocyte proliferation; experiment: Splenocyte (B cell) proliferation stimulated by anti-mu/anti-IgM and IL-4; type: cell-based; settings: Mus musculus, anti-IgM antibodies (10 µg/ml) and murine IL-4 (12.5 ng/ml)
Protocol: This example illustrates inhibitive effects of compounds nos. 27 and 28 on murine splenocyte proliferation stimulated by anti-mu ([…]) and interleukin-4 (IL-4, 12.5 ng/ml). This in vitro assay, described above, is indicative of immune-suppressive/autoimmune treatment assay emphasizing humoral or B cell immune response. The inventive compound was added to the cells at the doses indicated two hours prior to activation with anti-mu and IL-4. Both compounds nos. 27 and 28 inhibited splenocyte proliferation in a dose-response manner. IC50 values for compounds nos. Background counts were less than 200 cpm.
In figure 57, results shown illustrate that inventive compound no. 45 inhibits B cell proliferation. Murine splenocytes were stimulated with anti-IgM antibodies (10 µg/ml) and murine IL-4 (12.5 ng/ml). Cells were pulsed with ^3HTdR at 44 hours, harvested 4 hours later, and the incorporation of ^3H-TdR was determined by liquid scintillation.

[4] = tested on: murine splenocytes; experiment: Anti-CD3 stimulated splenocyte proliferation; type: cell-based; settings: Mus musculus
Protocol: In the assay, murine splenocytes were activated with a monoclonal antibody directed against CD3 (1 µg/ml), resulting in an IL-2 mediated proliferative response.
45 (1 µM). […] The supernatants were harvested and assayed for cytokine levels using commercial ELISAs for proliferation.

[5] = tested on: HUVEC; experiment: VEGF-induced HUVEC migration, Matrigel invasion assay system; type: cell-based; settings: Homo sapiens, 50 ng/ml VEGF
Text: 58. HUVEC were placed in a Matrigel invasion assay system (Becton Dickinson) and VEGF-induced migration assessed with or without varying concentrations of inventive compound no. 58.

[6] = tested on: human pulmonary smooth muscle cells; experiment: Growth factor-induced proliferation of pulmonary smooth muscle cells; type: cell-based; settings: 5 µM
Protocol: 58 on either aFGF or bFGF-induced proliferation in human pulmonary smooth muscle cells. Cells were grown in reduced serum (0.5% fetal calf serum) for 24 hours prior to stimulating with various concentrations of […]. Cells, stimulated with either aFGF or bFGF, were analyzed in the presence and absence of compound no. 58 (5 µM). Assay results are reported in figures 25A and 25B (aFGF and bFGF, respectively). As shown in the results, compound no.
Figures 65A-65F illustrate inhibition of proliferation in either human aortic or pulmonary smooth muscle cells (SMC) by inventive compound no. 58. Procedurally, cells were cultured in 0.5% serum containing medium 24 hours prior to stimulation with various concentrations of either PDGF (figs. 65A and 65B), acidic FGF (figs. 65C and 65D) or basic FGF (figs. 65E and 65F). Cells were stimulated for 24 hours prior to labeling with ^3H-TdR for 4 hours and harvested and counted by scintillation. Compound no. 58 was added 1 hour prior to stimulation at a concentration of 5 µM. Even at points of maximum stimulation of the growth factors, compound no. […] In addition cell number was assessed and those treated with compound no.

[7] = tested on: Swiss/3T3 cells; experiment: EGF-induced proliferation in Swiss/3T3 cells; type: cell-based; settings: 20 ng/ml EGF
Protocol: As illustrated in figures 67A and 67B, inventive compound no. 58 inhibited VEGF-induced proliferation in HUVEC and EGF-induced proliferation in Swiss/3T3 cells, respectively. Procedurally, HUVEC were placed in 0.5% serum containing medium prior to stimulation with various concentrations of VEGF, with or without inventive compound no. 58 (5 µM). Twenty four hours later the cells were pulsed with ^3H-TdR and 4 hours later harvested and counted by scintillation. The IC50 for inhibition was approximately 50-100 nM. Swiss 3T3 cells were stimulated with 20 ng/ml EGF and 24 hours later harvested and counted by scintillation.

Row | Compound | response to anti-CD3 after 5 days culture with compound ([1]; 1 µM) | response to original/priming antigen 2PK3 after 5 days culture with compound ([1]; 1 µM) | IC50 ([1]; Mus musculus, Splenocyte, alloantigen target cell line 2PK3, read-out: approximate IC50) [nM] | IFN-γ release [2] | IL-2 release [2] | IL-4 release [2] | IC50 [3] [nM] | IC50 ([4]; anti-CD3 (1 µg/ml), read-out: IC50) [nM] | IC50 ([4]; read-out: concentration approximately equal to IC50 value) [nM] | IC50 [5] [nM] | inhibition of aFGF and bFGF-induced proliferation [6] | toxic effect [6] | inhibition of proliferation at maximum stimulation by PDGF, acidic FGF or basic FGF ([6]; added 1 hour prior) | IC50 [7] [nM]
1 | CCCCCCCCNCC(O)CCCCCCCCCn1c(=O)c2c(ncn2C)n(C)c1=O (centres unmarked) [compound no. 45] | responded equivilantly to anti-CD3; also recorded: polyclonal T-cell response to anti-CD3 was not affected | decreased response to primary antigen, 2PK3; also recorded: secondary response to the priming antigen was inhibited | ~1000 | drastically inhibited IFN-γ release | did not significantly inhibit IL-2 release | only partially inhibits IL-4 release | 1200 | ~850 | ~1000 | – | – | – | – | –
2 | COc1cc(CNCC(O)CCCCCCCCCn2c(=O)c3c(ncn3C)n(C)c2=O)cc(OC)c1OC (centres unmarked) [compound no. 58, 1-[11-(3,4,5-Trimethoxybenzylamino)-10-hydroxyundecyl]-3,7-dimethylxanthine] | – | – | – | – | – | – | – | – | – | 100 to 200 | a potent inhibitor of both aFGF and bFGF-induced proliferation | No toxic effect | completely inhibited cellular proliferation in both aortic and pulmonary SMC | ~20
